This is an account of results in patent US20050009730A1, “Treatment of cns disorders using cns target modulators” (priority 2001, published 2005).

Molecules are shown by their SMILES. Like-named read-outs stand apart in the source and are kept apart here.

One data set concerns the target Histamine, H1 (Homo sapiens, UniProt P35367). Kind of data set: H1 binding assay by displacement of known standards. On the procedure:
The following binding assays were performed on the Series 11 compounds described above by displacement of known standards from the H1, M1, M2, and M3 receptors, wherein H1 is a histamine receptor, and M1, M2, and M3 are muscarinic receptors.
The binding studies against the histamine receptor, H1, indicate binding affinity, and therefore the results of the binding assays are an indication of the activity of the compound. […]
The following binding assays were performed on additional compounds described above by displacement of known standards from the H1, M1, M2, and M3 receptors, wherein H1 is a histamine receptor, and M1, M2, and M3 are muscarinic receptors.
The binding assays for H1 was the same as described in Example 10 and the M1, M2, and M3 binding assays are the same as those described in Example 10 for human recombinant expressed cells.

For a further data set, the system named is Male Wistar rats. Kind of data set: Sleep-wakefulness, locomotor activity and body temperature monitoring (SCORE-2000), treatment at CT-18.
Where [1] appears, read: read-out: Receptor Binding Data (Ki nM) H1.
Where [2] appears, read: 10 mg/kg or 30 mg/kg, intraperitoneal.
The mark [3] stands for this setting: 30 mg/kg and 10 mg/kg, intraperitoneal, CT-18.

Sequence of Histamine, H1 (P35367 whole entry): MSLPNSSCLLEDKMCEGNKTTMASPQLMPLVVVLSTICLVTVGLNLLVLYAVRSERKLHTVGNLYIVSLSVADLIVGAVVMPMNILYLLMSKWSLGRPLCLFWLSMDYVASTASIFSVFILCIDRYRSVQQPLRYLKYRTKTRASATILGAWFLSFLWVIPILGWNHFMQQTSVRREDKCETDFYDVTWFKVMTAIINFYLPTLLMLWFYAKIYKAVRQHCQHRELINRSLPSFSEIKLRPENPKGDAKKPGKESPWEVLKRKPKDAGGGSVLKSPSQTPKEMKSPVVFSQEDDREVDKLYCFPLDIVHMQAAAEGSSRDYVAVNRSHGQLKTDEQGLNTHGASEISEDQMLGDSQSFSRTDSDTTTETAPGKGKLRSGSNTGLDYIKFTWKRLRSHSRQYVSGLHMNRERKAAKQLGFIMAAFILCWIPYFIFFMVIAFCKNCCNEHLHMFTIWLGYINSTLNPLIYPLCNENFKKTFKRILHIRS

As a reminder, the Ki is the dissociation constant of the complex between target and ligand, obtained from inhibition or displacement. Consider `O=C(O)CN1CCC(=C2c3ccccc3COc3ccccc32)CC1` [Series 7a], for which the Ki at Histamine, H1 (setting [1]) turned out to be 55.1 nM. In the data set with Male Wistar rats (30 mg/kg PO, at CT-18), the “Average Bout-Length” value came to 7.3 min, the Duration was 5 to 6 h, the “Maximum Bout Length” value amounted to 16.9 min and the “NREM Accum.” value was 29.5 min. In the data set with Male Wistar rats (30 mg/kg PO, at CT-18), the “NREM Peak” value amounted to 56.9 %/hr and the Onset stood at 130 min.
The term IC50 denotes the midpoint of a concentration-inhibition curve. A high value points to a need for much substance. For `CC(C)COC(=O)CCN1CCC(=C(c2ccccc2)c2ccccc2)CC1` [Series 11e, Isobutyl 3-[4-(diphenylmethylidene)piperidin-1-yl]propanoate], the IC50 on Histamine, H1 worked out at 718 nM. Besides, the Ki at Histamine, H1 (read-out: H1 Ki) stood at 279 nM. For the same compound, in the data set with Male Wistar rats (30 mg/kg PO, at CT-18), the “Average Bout-Length” value is 8.3 min, the Duration came to 6 h, the “Maximum Bout Length” value was 19.1 min and the “NREM Accum.” value came out at 49.6 min. For the same compound, in the data set on Male Wistar rats (30 mg/kg PO, at CT-18), the “NREM Peak” value amounted to 59.6 %/hr and the Onset is 80 min.
`CC(C)OC(=O)CCN1CCC(=C(c2ccccc2)c2ccccc2)CC1` [Series 11d, Isopropyl 3-[4-(diphenylmethylidene)piperidin-1-yl]propanoate] displayed an IC50 on Histamine, H1 of 378 nM. Further, the Ki at Histamine, H1 (read-out: H1 Ki) was 147 nM. Also, in the data set on Male Wistar rats (30 mg/kg PO, at CT-18), the “Average Bout-Length” value is 11.0 min, the Duration amounted to 6 h, the “Maximum Bout Length” value was 20.1 min and the “NREM Accum.” value stood at 55.5 min. Besides, in the data set on Male Wistar rats (30 mg/kg PO, at CT-18), the “NREM Peak” value worked out at 58.5 %/hr and the Onset was 135 min.
Consider `Cc1ccc(/C(=C\CN2CCCC2)c2cccc(C(=O)O)n2)cc1` [Series 16a], for which the Ki on Histamine, H1 (setting [1]) came out at 43.9 nM. In the data set with Male Wistar rats (30 mg/kg PO, at CT-18), the “Average Bout-Length” value is 5.4 min, the Duration is 5 h, the “Maximum Bout Length” value amounted to 11.8 min and the “NREM Accum.” value stood at 20.7 min. For the same compound, in the data set with Male Wistar rats (30 mg/kg PO, at CT-18), the “NREM Peak” value stood at 57.9 %/hr and the Onset was found to be 180 min.
As to `Cl.O=C(O)CCN1CCC(OC(c2ccccc2)c2ccccc2)CC1` [Series 6a, 3-[4-(diphenylmethoxy)piperidin-1-yl]propanoic acid hydrochloride], the Ki on Histamine, H1 (setting [1]) came out at 56.1 nM. Moreover, in the data set with Male Wistar rats (30 mg/kg PO, at CT-18), the “Average Bout-Length” value came to 7.0 min, the Duration came out at 5 h, the “Maximum Bout Length” value turned out to be 12.8 min and the “NREM Accum.” value amounted to 26.5 min. In addition, in the data set on Male Wistar rats (30 mg/kg PO, at CT-18), the “NREM Peak” value is 56.4 %/hr and the Onset stood at 65 min.
In the case of `Cl.O=C(O)CCCN1CCC(OC(c2ccccc2)c2ccccc2)CC1` [Series 53a], the Ki at Histamine, H1 (setting [1]) came to 16.1 nM. For the same compound, in the data set on Male Wistar rats (30 mg/kg PO, at CT-18), the “Average Bout-Length” value turned out to be 4.3 min, the Duration stood at 4 h, the “Maximum Bout Length” value was 9.1 min and the “NREM Accum.” value was 17.4 min. In addition, in the data set on Male Wistar rats (30 mg/kg PO, at CT-18), the “NREM Peak” value is 49.2 %/hr and the Onset amounted to 30 min.
With `CC(C)(CN1CCC(=C2c3ccccc3COc3ccccc32)CC1)C(=O)O` [Series 74a], the Ki on Histamine, H1 (setting [1]) is 109 nM. Further, in the data set with Male Wistar rats (30 mg/kg PO, at CT-18), the “Average Bout-Length” value is 9.9 min, the Duration was in the range of 5 to 6 h, the “Maximum Bout Length” value turned out to be 22.3 min and the “NREM Accum.” value was 43.4 min. For the same compound, in the data set on Male Wistar rats (30 mg/kg PO, at CT-18), the “NREM Peak” value worked out at 64.4 %/hr and the Onset was 70 to 80 min.
`Cl.O=C(O)CCN1CCC(=C(c2ccccc2)c2ccccc2)CC1` [Series 11a] gave an IC50 at Histamine, H1 of 308 nM. For the same compound, the Ki at Histamine, H1 (read-out: H1 Ki) stood at 119 nM. Moreover, in the data set with Male Wistar rats (30 mg/kg PO, at CT-18), the “Average Bout-Length” value was determined as 11.2 min, the Duration was found to be 6 h, the “Maximum Bout Length” value is 18.7 min and the “NREM Accum.” value came to 41.2 min. In the data set with Male Wistar rats (30 mg/kg PO, at CT-18), the “NREM Peak” value came out at 67.3 %/hr, the Onset amounted to 85 min and the “Rebound Insomnia” value is given as “Minor”.
Regarding `CC(C)OC(=O)CN1CCC(=C2c3ccccc3COc3ccccc32)CC1` [dox7d-oxalate], the Ki on Histamine, H1 (setting [1]) came out at 198 nM. In the data set with Male Wistar rats (30 mg/kg PO, at CT-18), the “Average Bout-Length” value is 12.9 min, the Duration was found to be 5 h, the “Maximum Bout Length” value turned out to be 25.0 min and the “NREM Accum.” value is 54.1 min. In the data set on Male Wistar rats (30 mg/kg PO, at CT-18), the “NREM Peak” value was determined as 76.9 %/hr and the Onset worked out at 85 min.
On to `O=C(O)CCCN1CCC(=C2c3ccccc3COc3ccccc32)CC1` [Series 73a], for which, at Histamine, H1 (setting [1]), the Ki came to 42.8 nM. In the data set on Male Wistar rats (30 mg/kg PO, at CT-18), the “Average Bout-Length” value is 14.5 min, the “Maximum Bout Length” value is 27.6 min, the “NREM Accum.” value was found to be 47.3 min and the “NREM Peak” value came to 62.2 %/hr. This compound displayed an Onset in the data set with Male Wistar rats (30 mg/kg PO, at CT-18) of 45 min.
Compound `O=C(CCN1CCC(=C(c2ccccc2)c2ccccc2)CC1)OC1CCCC1.O=C(O)C(=O)O` [Series 11f, Cyclopentyl 3-[4-(diphenylmethylidene)piperidin-1-yl]propanoate, oxalic acid salt] gave an IC50 on Histamine, H1 of 1070 nM. In addition, on Histamine, H1 (read-out: H1 Ki), the Ki amounted to 416 nM. Besides, in the data set with Male Wistar rats (setting [2]), the REM sleep inhibition result is on record as “did not, however, produce” and the Rebound Insomnia result was “did not, however, produce”. Besides, in the data set on Male Wistar rats (setting [3]), the “time post-treatment for which total sleep time was increased” value was found to be 3 h and the total sleep time result is given as “significantly increased”. For the same compound, the “cumulative effect on total sleep time (TST) during the initial 5 hours post-treatment, relative to baseline” value with Male Wistar rats (30 mg/kg versus Zolpidem 10 mg/kg) is given as “induced more TST than Zolpidem”. The “sleep continuity, as assessed by sleep bout length” value in the data set with Male Wistar rats (10 and 30 mg/kg, intraperitoneal, relative to vehicle control) is “increased sleep continuity”. For the same compound, in the data set with Male Wistar rats (administered at CT-18, intraperitoneal bolus), the soporific effects entry is “robust soporific effects”. Besides, in the data set on Male Wistar rats (intraperitoneal, CT-18), the locomotor activity entry is reported as “reduction” and the “sleep inducing effects compared to therapeutic doses of Ambien (Zolpidem)” value is listed as “equal or better”. Further, in the data set on Male Wistar rats (laboratory rats, 10 and 30 mg/kg), the “increase of sleep time and sleep continuity (sleep bout lengths): dependence on dose” value was “dose-dependent”.
Take `Cc1ccc(-c2nc3ccc(C)cn3c2CC(=O)N(C)C)cc1` [Ambien, Zolpidem, reference compound]: in the data set with Male Wistar rats (30 mg/kg IP, at CT-18), the “Average Bout-Length” value was 5.8 min, the Duration lay in the range of 3 to 4 h, the “Maximum Bout Length” value came out at 13.1 min and the “Motor Inhibition” value is recorded as “YES”. Moreover, in the data set with Male Wistar rats (30 mg/kg IP, at CT-18), the “NREM Accum.” value worked out at 58.7 min, the “NREM Peak” value is reported as 58.2 %/hr, the Onset stood at 5 min and the “REM Inhibition” value is “YES”. Moreover, in the data set with Male Wistar rats (30 mg/kg IP, at CT-18), the “Rebound Insomnia” value is listed as “YES”.
For the compound `CC(C)(CCN1CCC(=C2c3ccccc3COc3ccccc32)CC1)C(=O)O` [Series 75a], the Ki at Histamine, H1 (setting [1]) was 47.9 nM. Besides, in the data set on Male Wistar rats (30 mg/kg PO, at CT-18), the “Average Bout-Length” value was determined as 6.8 min, the Duration came to 4 h, the “Maximum Bout Length” value is 13.6 min and the “NREM Accum.” value was 33.9 min. Besides, in the data set on Male Wistar rats (30 mg/kg PO, at CT-18), the “NREM Peak” value is on record as 58.8 %/hr and the Onset lay within 70 to 85 min. Also, in the data set on Male Wistar rats (45 mg/kg PO, at CT-18), the “Average Bout-Length” value is 10.8 min, the Duration amounted to 5 h, the “Maximum Bout Length” value came to 19.4 min and the “NREM Accum.” value is 33.9 min. In addition, in the data set with Male Wistar rats (45 mg/kg PO, at CT-18), the “NREM Peak” value is 58.2 %/hr and the Onset was in the range of 70 to 85 min.
In turn, `O=C(CCN1CCC(=C(c2ccccc2)c2ccccc2)CC1)OC1CCOCC1` [Series 11i] came in with an IC50 on Histamine, H1 of 200 nM. Also, the Ki at Histamine, H1 (read-out: H1 Ki) stood at 87.8 nM.
